{
  "source": "patent US20230181681A1",
  "about": "“PEPTIDE FOR SUPPRESSING CORONAVIRUS AND USE THEREOF” (priority 2020, published 2023)",
  "key": {"[1]": {"system": "interaction of MERS-CoV Spike CD with MERS-CoV N protein", "type": "binding"}, "MERS-CoV N protein": {"system": "MERS-CoV N protein", "type": "binding"}, "SARS-CoV-2": {"system": "SARS-CoV-2", "type": "cell-based"}, "MERS-CoV": {"system": "MERS-CoV", "type": "cell-based"}, "HCoV-OC43 [2]": {"system": "HCoV-OC43", "assay": "HCoV-OC43 production in Vero cells by plaque formation assay", "type": "cell-based", "conditions": "0.1 MOI, 2 μM peptide 6 hours after infection, 48 hours, plaque formation test, FIG. 23"}, "HCoV-OC43 [3]": {"system": "HCoV-OC43", "assay": "HCoV-OC43 S and N protein production in infected Vero cells (Western blotting, confocal microscopy)", "type": "cell-based", "conditions": "0.1 MOI, peptide 6 hours after infection, 48 h, FIGS. 20 to 22"}},
  "note": "Ends that are not written are not given here.",
  "data": [
    {"substance": "TGCGTNCMGKLKCNRC [Spike CD-F]", "values": [
      {"measurement": "relative activity in inhibiting the interaction between Spike CD-Full and N protein", "setting": "[1]", "value": "highest activity"},
      {"measurement": "binding of Spike CD peptides with N protein", "setting": "MERS-CoV N protein", "value": "can tightly bind with N protein"}
    ]},
    {"substance": "NH2-d-RRRRRRRRRR-AQARRKNYGQLDIFP-COOH [R-CP-1]", "values": [
      {"measurement": "reduction of SARS-CoV-2 production", "setting": "SARS-CoV-2", "value": 40, "unit": "%"},
      {"measurement": "MERS-CoV plaque formation", "setting": "MERS-CoV", "value": "no effect was observed"}
    ]},
    {"substance": "R-Spike CD-OC43 (RRRRRRRRRCCTGCGTSCFKKCGGCCDDYTGYQELVIKTSHDD; not fully specified; cysteine pairing not given here)", "values": [
      {"measurement": "reduction of HCoV-OC43 production", "setting": "HCoV-OC43 [2]", "value": 20, "unit": "%"}
    ]},
    {"substance": "CCTGCGTSCFKKCGGCCDDYTGYQELVIKTSHDD [Spike CD-OC43]", "values": [
      {"measurement": "production of S protein and N protein of HCoV-OC43", "setting": "HCoV-OC43 [3]", "value": "no effect was observed"}
    ]}
  ]
}
